In general, Ki refers to the equilibrium dissociation constant of an inhibitor or competing ligand from its target.

Molecules are shown by their SMILES.

For this experiment, the target named is human PDE10A2 (Homo sapiens (Human), UniProt Q9Y233). Kind of experiment: PDE10 fluorescence polarization (IMAP FP) inhibition assay. It counts as biochemical. As to conditions: human PDE10A2, FAM-labeled cAMP substrate, read-out: PDE10A Ki. A digest of the protocol: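 Cytoplasmic lysate of AD293 cells transiently expressing human PDE10A2 (diluted to ~20% substrate conversion) incubated 30 min at room temperature with 50 nM FAM-cAMP in Tris pH 7.2 buffer with MgCl2, DTT. Activity read by IMAP fluorescence polarization. 0% inhibition set with 1% DMSO, 100% with reference PDE10 inhibitor.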
human PDE10A2, sequence (Q9Y233 267-1055): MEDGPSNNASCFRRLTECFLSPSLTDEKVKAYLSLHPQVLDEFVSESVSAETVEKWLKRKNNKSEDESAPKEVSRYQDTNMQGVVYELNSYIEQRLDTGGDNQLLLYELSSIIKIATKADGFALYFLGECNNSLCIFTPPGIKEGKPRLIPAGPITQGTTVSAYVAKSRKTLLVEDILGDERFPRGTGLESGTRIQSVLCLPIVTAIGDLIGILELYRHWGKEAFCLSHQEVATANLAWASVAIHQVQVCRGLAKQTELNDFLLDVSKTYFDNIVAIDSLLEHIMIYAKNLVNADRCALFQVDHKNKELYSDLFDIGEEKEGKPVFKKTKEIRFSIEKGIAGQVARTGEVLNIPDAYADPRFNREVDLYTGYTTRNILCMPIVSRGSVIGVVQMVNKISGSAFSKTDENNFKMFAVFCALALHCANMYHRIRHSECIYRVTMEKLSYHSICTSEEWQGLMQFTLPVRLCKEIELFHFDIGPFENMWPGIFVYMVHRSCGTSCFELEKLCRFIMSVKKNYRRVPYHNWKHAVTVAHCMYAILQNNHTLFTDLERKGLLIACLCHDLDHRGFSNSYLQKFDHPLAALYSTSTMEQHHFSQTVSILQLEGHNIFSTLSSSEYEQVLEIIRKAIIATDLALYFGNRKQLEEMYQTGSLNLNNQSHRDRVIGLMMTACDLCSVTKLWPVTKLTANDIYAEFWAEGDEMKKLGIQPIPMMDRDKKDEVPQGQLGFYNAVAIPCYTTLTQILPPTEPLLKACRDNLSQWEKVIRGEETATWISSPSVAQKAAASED
Turning to `COc1ccc([C@H]2C[C@@H]2COc2nc(C)ncc2-c2ccn(CC(F)(F)F)c(=O)c2)nc1` [Example 121, 4-(4-(((1S,2S)-2-(5-methoxypyridin-2-yl)cyclopropyl)methoxy)-2-methylpyrimidin-5-yl)-1-(2,2,2-trifluoroethyl)pyridin-2(1H)-one], the Ki is 0.299 nM.
With `C=CCn1ccc(-c2cnc(C)nc2OC[C@H]2C[C@@H]2c2ccc(OC)cn2)cc1=O` [Example 122, 1-allyl-4-(4-(((1S,2S)-2-(5-methoxypyridin-2-yl)cyclopropyl)methoxy)-2-methylpyrimidin-5-yl)pyridin-2(1H)-one] the figure was 0.458 nM.
With `C=CCn1ccc(-c2cnc(C)nc2OC[C@H]2C[C@@H]2c2ccc(C)cn2)cc1=O` [Example 123, 1-allyl-4-(2-methyl-4-(((1S,2S)-2-(5-methylpyridin-2-yl)cyclopropyl)methoxy)pyrimidin-5-yl)pyridin-2(1H)-one] the figure was 0.508 nM.
Under `COC(=O)Cn1ccc(-c2cnc(C)nc2OC[C@H]2C[C@@H]2c2ccc(OC)cn2)cc1=O` [Example 124, methyl 2-(4-(4-(((1S,2S)-2-(5-methoxypyridin-2-yl)cyclopropyl)methoxy)-2-methylpyrimidin-5-yl)-2-oxopyridin-1(2H)-yl)acetate] stands 0.284 nM.
For `[2H]C([2H])([2H])n1ccc(-c2cnc(C)nc2OC[C@H]2C[C@@H]2c2ccc(C)cn2)cc1=O` [Example 125, 1-methyl-4-(2-methyl-4-(((1S,2S)-2-(5-methylpyridin-2-yl)cyclopropyl)methoxy)pyrimidin-5-yl)pyridin-2(1H)-one], the inhibitory constant (Ki) turned out to be 1.66 nM.
As to `Cc1ccc([C@H]2C[C@@H]2COc2nc(C)ncc2-c2ccn(CCO)c(=O)c2)nc1` [Example 126, 1-(2-hydroxyethyl)-4-(2-methyl-4-(((1S,2S)-2-(5-methylpyridin-2-yl)cyclopropyl)methoxy)pyrimidin-5-yr)pyridin-2(1H)-one], the Ki is 1.01 nM.
Under `COc1ccc([C@H]2C[C@@H]2COc2nc(C)ncc2-c2ccn(CCO)c(=O)c2)nc1` [Example 127, 1-(2-hydroxyethyl)-4-(4-(((1S,2S)-2-(5-methoxypyridin-2-yl)cyclopropyl)methoxy)-2-methylpyrimidin-5-yl)pyridin-2(1H)-one] stands 0.64 nM; under `COc1ccc([C@H]2C[C@@H]2COc2nc(C)ncc2-c2ccn(C)c(=O)c2)nc1` [Example 128, 4-(4-(((1S,2S)-2-(5-methoxypyridin-2-yl)cyclopropyl)methoxy)-2-methylpyrimidin-5-yl)-1-methylpyridin-2(1H)-one], 1.54 nM.
Under `COC(=O)Cn1ccc(-c2cnc(C)nc2OC[C@H]2C[C@@H]2c2ccc(C)cn2)cc1=O` [Example 129, methyl 2-(4-(2-methyl-4-(((1S,2S)-2-(5-methylpyridin-2-yl)cyclopropyl)methoxy)pyrimidin-5-yl)-2-oxopyridin-1(2H)-yl)acetate] stands 0.394 nM; under `COc1ccc([C@H]2C[C@@H]2COc2nc(C)ncc2-c2ccn(CC(F)F)c(=O)c2)nc1` [Example 130, 1-(2,2-difluoroethyl)-4-(4-(((1S,2S)-2-(5-methoxypyridin-2-yl)cyclopropyl)methoxy)-2-methylpyrimidin-5-yl)pyridin-2(1H)-one], 0.386 nM; under `Cc1ncc(-c2cc(=O)n(C)cc2C)c(OC[C@H]2C[C@@H]2c2ccc3c(n2)CCC3)n1` [Example 131, 4-(4-(((1S,2S)-2-(6,7-dihydro-5H-cyclopenta[b]pyridin-2-yl)cyclopropyl)methoxy)-2-methylpyrimidin-5-yl)-l,5-dimethylpyridin-2(1H)-one], 0.033 nM.
Consider `COc1ccc([C@H]2C[C@@H]2COc2nc(C)ncc2-c2cc(=O)n(C)cc2C2CC2)nc1` [Example 132, 5-cyclopropyl-4-(4-(((1S,2S)-2-(5-methoxypyridin-2-yl)cyclopropyl)methoxy)-2-methylpyrimidin-5-yl)-1-methylpyridin-2(1H)-one], for which the Ki is 0.583 nM.
Under `Cc1ccc([C@H]2C[C@@H]2COc2nc(C)ncc2-c2ccn(C3CC3)c(=O)c2)nc1` [Example 133, 1-cyclopropyl-4-(2-methyl-4-(((1S,2S)-2-(5-methylpyridin-2-yl)cyclopropyl)methoxy)pyrimidin-5-yl)pyridin-2(1H)-one] stands 0.935 nM; under `COc1ccc([C@H]2C[C@@H]2COc2nc(C)ncc2-c2ccn(CC(=O)O)c(=O)c2)nc1` [Example 134, 2-(4-(4-(((1S,2S)-2-(5-methoxypyridin-2-yl)cyclopropyl)methoxy)-2-methylpyrimidin-5-yl)-2-oxopyridin-1(2H)-yl)acetic acid], 9.85 nM; under `Cc1ccc([C@H]2C[C@@H]2COc2nc(C)ncc2-c2cnn(C)c(=O)c2)nc1` [Example 135, 2-methyl-5-(2-methyl-4-(((1S,2S)-2-(5-methylpyridin-2-yl)cyclopropyl)methoxy)pyrimidin-5-yl)pyridazin-3(2H)-one], 6.31 nM.
`COc1ccc([C@H]2C[C@@H]2COc2nc(C)ncc2-c2cnn(C)c(=O)c2)nc1` [Example 136, 5-(4-(((1S,2S)-2-(5-methoxypyridin-2-yl)cyclopropyl)methoxy)-2-methylpyrimidin-5-yl)-2-methylpyridazin-3(2H)-one]: the Ki amounted to 5.74 nM.
Under `COc1ccc([C@H]2C[C@@H]2COc2nc(C)ncc2-c2cnn(C)c(=O)c2Cl)nc1` [Example 137, 4-chloro-5-(4-(((1S,2S)-2-(5-methoxypyridin-2-yl)cyclopropyl)methoxy)-2-methylpyrimidin-5-yl)-2-methylpyridazin-3(2H)-one] stands 0.728 nM.
With `COc1ccc([C@H]2C[C@@H]2COc2nc(C)ncc2-c2cc(=O)n(C)nc2OC)nc1` [Example 138, 6-methoxy-5-(4-(((1S,2S)-2-(5-methoxypyridin-2-yl)cyclopropyl)methoxy)-2-methylpyrimidin-5-yl)-2-methylpyridazin-3(2H)-one] the figure was 2.16 nM.
Under `COc1ccc([C@H]2C[C@@H]2COc2nc(C)ncc2-c2cc(=O)n(C)nc2O)nc1` [Example 139, 6-hydroxy-5-(4-(((1S,2S)-2-(5-methoxypyridin-2-yl)cyclopropyl)methoxy)-2-methylpyrimidin-5-yl)-2-methylpyridazin-3(2H)-one] stands 21.2 nM; under `Cc1ncc(-c2cc(=O)n(C)cn2)c(OC[C@H]2C[C@@H]2c2ccc3ccccc3n2)n1` [Example 140, 3-methyl-6-(2-methyl-4-(((1S,2S)-2-(quinolin-2-yl)cyclopropyl)methoxy)pyrimidin-5-yl)pyrimidin-4(3H)-one], 0.228 nM.
Take `Cc1ccc([C@H]2C[C@@H]2COc2nc(C)ncc2-c2cc(=O)n(C)cn2)nc1` [Example 141, 3-methyl-6-(2-methyl-4-(((1S,2S)-2-(5-methylpyridin-2-yl)cyclopropyl)methoxy)pyrimidin-5-yl)pyrimidin-4(3H)-one]: the Ki was determined as 5.46 nM.
As to `COc1ccc([C@H]2C[C@@H]2COc2nc(C)ncc2-c2cc(=O)n(C)cn2)nc1` [Example 142, 6-(4-(((1S,2S)-2-(5-methoxypyridin-2-yl)cyclopropyl)methoxy)-2-methylpyrimidin-5-yl)-3-methylpyrimidin-4(3H)-one], the Ki is 6.04 nM.

(Values after patent US9273033B2, “Substituted pyridone derivatives as PDE10 inhibitors” (Merck Sharp & Dohme Corp., priority 2012, dated 2016).)
